Laboratory results as given in patent US20060161001A1, “Substituted heterocyclic compounds and methods of use” (Amgen Inc., priority 2004, published 2006).

These compounds were tested on LPS induced TNF release (assay: THP1 cell assay (LPS induced TNF release)). Settings: Homo sapiens, THP-1; THP1 cells, LPS induced TNF-α secretion, 3 h at 37° C.
Type: cell-based
Experimental: Lipopolysaccharide-Activated THP1 Cell TNF Production Assay
THP1 cells are resuspended in fresh THP1 media (RPMI 1640, 10% heat-inactivated FBS, 1XPGS, 1XNEAA, plus 30 μM OME) at a concentration of 1E6/mL. One hundred microliters of cells per well are plated in a polystyrene 96-well tissue culture. One microgram per mL of bacterial LPS is prepared in THP1 media and is transferred to the wells. Test compounds are dissolved in 100% DMSO and are serially diluted 3-fold in a polypropylene 96-well microtiter plate (drug plate). HI control and LO control wells contain only DMSO. One microliter of test compound from the drug plate followed by 10 μL of LPS are transferred to the cell plate. The treated cells are induced to synthesize and secrete TNF-α at 37° C. for 3 h. Forty microliters of conditioned media are transferred to a 96-well polypropylene plate containing 110 μL of ECL buffer (50 mM Tris-HCl pH 8.0, 100 mM NaCl, 0.05% Tween 20, 0.05% NaN3 and 1% FBS) supplemented with 0.44 nM MAB610 monoclonal Ab (R&D Systems), 0.34 nM ruthenylated AF210NA polyclonal Ab (R&D Systems) and 44 μg/mL sheep anti-mouse M280 Dynabeads (Dynal). After a 2 h incubation at RT with shaking, the reaction is read on the ECL M8 Instrument (IGEN Inc.). A low voltage is applied to the ruthenylated TNF-α immune complexes, which in the presence of TPA (the active component in Origlo), results in a cyclical redox reaction generating light at […]. The amount of secreted TNF-α in the presence of compound compared with that in the presence of DMSO vehicle alone (HI control) is calculated using the formula: % control (POC)=(cpd−average LO)/(average HI−average LO)*100. Data (consisting of POC and inhibitor concentration in μM) is fitted to a 4-parameter equation (y=A+((B−A)/(I+((x/C)ˆD))), where A is the minimum y (POC) value, B is the maximum y (POC), C is the x (cpd concentration) at the point of inflection and D is the slope factor) using a Levenburg-Marquardt non-linear regression algorithm.

IC50, ≤ 20 µM:
CN(C)Cc1cc2c(nc1-c1ccccc1)N(c1ccnc(NCCc3ccccc3)n1)CCC2 [Example 71, 4-(6-((Dimethylamino)methyl)-7-phenyl-3,4-dihydro-1,8-naphthyridin-1(2H)-yl)-N-phenethylpyrimidin-2-amine]
CC(C)(Cc1ccc(F)cc1)Nc1nccc(N2CCCc3cnc(-c4ccccc4)cc32)n1 [Example 40, N-(1-(4-Fluorophenyl)-2-methylpropan-2-yl)-4-(7-phenyl-3,4-dihydro-1,6-naphthyridin-1(2H)-yl) pyrimidin-2-amine]
CC(C)NC1CCC(Nc2nccc(N3CCCc4cnc(-c5ccccc5)cc43)n2)CC1 [Example 37, (1R,4R)-N^1-Isopropyl-N^4-(4-(7-phenyl-3,4-dihydro-1,6-naphthyridin-1(2H)-yl)-pyrimidin-2-yl)cyclohexane-1,4-diamine]
CC(C)(C)OC(=O)N1CCC(Nc2nccc(N3CCCc4ncc(-c5ccccc5)cc43)n2)CC1 [Example 30, tert-Butyl-4(7-phenyl-3,4-dihydro-1,5-naphthylridin-1(2H)-pyrimidin-2-ylamino)-piperidine-1-carboxylate]
N[C@H]1CC[C@H](Nc2nccc(N3CCOc4cnc(-c5ccccc5)nc43)n2)CC1 [Example 102, (1R,4R)-N^1-(4-(2-Phenyl-6,7-dihydropyrimido[5,4-b][1,4]oxazin-8-yl)pyrimidin-2-yl)cyclohexane-1,4-diamine]
Nc1cc2c(nc1-c1ccccc1)N(c1ccnc(NCCc3ccccc3)n1)CCC2 [Example 81, 8-(2-(Phenethylamino)pyrimidin-4-yl)-2-phenyl-5,6,7,8-tetrahydro-1,8-naphthyridin-3-amine]
NCC(=O)N1CCC(Nc2nccc(N3CCCc4cnc(-c5ccccc5)cc43)n2)CC1 [Example 13, 2-Amino-1-(4(4-(7-phenyl-3,4-dihydro-1,6-naphthyridin-1(2H)-yl)pyrimidin-2-yl-amino)piperdin-1-yl)ethanone]
C[C@H](N)c1cccc(C[C@H](C)Nc2nccc(N3CCCc4cnc(-c5ccccc5)cc43)n2)c1 [Example 109, N-((S)-1-(3-((S)-1-Aminoethyl)phenyl)propan-2-yl)-4-(7-phenyl-3,4-dihydro-1,6-naphthyridin-1(2H)-yl)pyrimidin-2-amine]
CC(C)(O)c1cc2c(nc1-c1ccccc1)N(c1ccnc(N[C@H]3CC[C@H](N)CC3)n1)CCC2 [Example 78, 2-(8-(2-((1R,4R)-4-Aminocyclohexylamino)pyrimidin-4-yl)-2-phenyl-5,6,7,8-tetrahydro-1,8-naphthyridin-3-yl)propan-2-ol]
CC(Cc1cccc(CO)c1)Nc1nc(N2CCCc3ccc(-c4ccccc4)nc32)cc(C(F)(F)F)n1 (stereo not drawn) [Example 57, (3-(2-(4-(7-Phenyl-3,4-dihydro-1,8-naphthyridin-1(2H)-yl)-6-(trifluoromethyl)-pyrimidin-2-ylamino)propyl)phenyl)methanol]
O=C(CC(F)(F)F)NC1CCC(Nc2nccc(N3CCCc4cnc(-c5ccccc5)cc43)n2)CC1 [Example 36, 3,3,3-Trifluoro-N-((1R,4R)-4-(4-(7-phenyl-3,4-dihydro-1,6-naphthyridin-1(2H)-yl)-pyrimidin-2-ylamino)cyclohexyl)propanamide]
c1ccc(CCNc2nccc(N3CCCc4ccc(-c5ccccc5)nc43)n2)cc1 [Example 47, N-Phenethyl-4-(7-phenyl-3,4-dihydro-1,8-naphthyridin-1(2H)-yl)pyrimidin-2-amine]
CC(C)(C)OC(=O)N1CCC(Nc2nccc(N3CCCc4cnc(-c5ccccc5)cc43)n2)CC1 [Example 7, tert-Butyl 4-(4-(7-phenyl-3,4-dihydro-1,6-naphthyridin-1(2H)-yl)pyrimidin-2-ylamino)piperidine-1-carboxylate]
CC(O)c1cc2c(nc1-c1ccccc1)N(c1ccnc(NCCc3ccccc3)n1)CCC2 (stereo not drawn) [Example 73, 1-(8-(2-(Phenethylamino)pyrimidin-4-yl)-2-phenyl-5,6,7,8-tetrahydro-1,8-naphthyridin-3-yl)ethanol]
CC(Cc1cccc(CO)c1)Nc1nccc(N2CCCc3cnc(-c4ccccc4)cc32)n1 (stereo not drawn) [Example 4, (3-(2-(4-(7-Phenyl-3,4-dihydro-1,6-naphthyridin-1(2H)-yl)pyrimidin-2-ylamino)-propyl)phenyl)methanol]
CC(Cc1cccc(CN)c1)Nc1nccc(N2CCCc3cc(CO)c(-c4ccccc4)nc32)n1 (stereo not drawn) [Example 80, (8-(2-(1-(3-(Aminomethyl)phenyl)propan-2-ylamino)pyrimidin-4-yl)-2-phenyl-5,6,7,8-tetrahydro-1,8-naphthyridin-3-yl)methanol]
CC(Cc1cccc(CN)c1)Nc1nccc(N2CCCc3ccc(-c4ccccc4)nc32)n1 (stereo not drawn) [Example 49, N-(1-(3-(Aminomethyl)phenyl)propan-2-yl)-4-(7-phenyl-3,4-dihydro-1,8-naphthyridin-1(2H)-yl)pyrimidin-2-amine]
FC(F)(F)c1cc(N2CCCc3ccc(-c4ccccc4)nc32)nc(NCCc2ccccc2)n1 [Example 56, N-Phenethyl-4-(7-phenyl-3,4-dihydro-1,8-naphthyridin-1(2H)-yl)-6-(trifluoromethyl)pyrimidin-2-amine]
CNCc1cc2c(nc1-c1ccccc1)N(c1ccnc(NCCc3ccccc3)n1)CCC2 [Example 70, 4-(6-((Methylamino)methyl)-7-phenyl-3,4-dihydro-1,8-naphthyridin-1(2H)-yl)-N-phenethylpyrimidin-2-amine]
C[C@@H](Cc1cccc(CN)c1)Nc1nccc(N2CCCc3cnc(-c4ccccc4)cc32)n1 [Example 38]
c1ccc(-c2cc3c(cn2)CCCN3c2ccnc(NC3CCNCC3)n2)cc1 [Example 8, 4-(7-Phenyl-3,4-dihydro-1,6-naphthyridin-1(2H)-yl)-N-(piperidin-4-yl)pyrimidin-2-amine]
CC(C)(C)CNc1nccc(N2CCCc3ccc(-c4ccccc4)nc32)n1 [Example 52, N-Neopentyl-4-(7-phenyl-3,4-dihydro-1,8-naphthyridin-1(2H)-yl)pyrimidin-2-amine]
CC(=O)c1cccc(C[C@H](C)Nc2nccc(N3CCCc4cnc(-c5ccccc5)cc43)n2)c1 [Example 12, (S)-1-(3-(2-(4-(7-Phenyl-3,4-dihydro-1,6-naphthyridin-1(2H)-yl)pyrimidin-2-yl-amino)propyl)phenyl)ethanone]
CC(=O)NCC(C)(C)Nc1nccc(N2CCCc3cnc(-c4ccccc4)cc32)n1 [Example 42, N-(2-Methyl-2-(4-(7-phenyl-3,4-dihydro-1,6-naphthyridin-1(2H)-yl)pyrimidin-2-ylamino)propyl)acetamide]
CC(C)(C)OC(=O)N1CCC(Nc2nccc(N3CCCc4ccc(-c5ccccc5)nc43)n2)CC1 [Example 54, tert-Butyl 4-(4-(7-phenyl-3,4-dihydro-1,8-naphthyridin-1(2H)-yl)pyrimidin-2-yl-amino)piperidine-1-carboxylate]
CCOC(=O)N1CCC(Nc2nccc(N3CCCc4ccc(-c5ccccc5)nc43)n2)CC1 [Example 87, Ethyl-4-(4-(7-phenyl-3,4-dihydro-1,8-naphthyridin-1(2H)-yl)pyrimidin-2-ylamino)-piperidine-1-carboxylate]
NC(=O)[C@@H](Cc1ccccc1)Nc1nccc(N2CCCc3cnc(-c4ccccc4)cc32)n1 [Example 33, (R)-3-Phenyl-2-(4-(7-phenyl-3,4-dihydro-1,6-naphthyridin-1(2H)-yl)pyrimidin-2-ylamino)propanamide]
Cc1cc(N2CCCc3ccc(-c4ccccc4)nc32)nc(N[C@@H](C)Cc2cccc([C@@H](C)N)c2)n1 [Example 62, N-((S)-1-(3-((R)-1-Aminoethyl)phenyl)propan-2-yl)-4-methyl-6-(7-phenyl-3,4-dihydro-1,8-naphthyridin-1(2H)-yl)pyrimidin-2-amine]
CC(C)(CN)Nc1nccc(N2CCCc3cnc(-c4ccccc4)cc32)n1 [Example 41, N-(1-Amino-2-methylpropan-2-yl)-4-(7-phenyl-3,4-dihydro-1,6-naphthyridin-1(2H)-yl)pyrimidin-2-amine]
C[C@@H](Cc1cccc([C@@H](C)N)c1)Nc1nccc(N2CCOc3cnc(-c4ccccc4)nc32)n1 [Example 100, N-((S)-1-(3-((R)-1-Aminoethyl)phenyl)propan-2-yl)-4-(2-phenyl-6,7-dihydropyrimido[5,4-b][1,4]oxazin-8-yl)pyrimidin-2-amine]
